Experimental data as given in PubChem BioAssay AID2060507 (Molecular Pharmacology Branch, DTP, NCI, 2025).

Test system: 519858-162-T-J1-PDC complex spheroid viability
Test: Anticancer human tumor 519858-162-T-J1-PDC patient-derived colon adenocarcinoma cell line growth inhibition [GQUAD]
Conditions: for IC50: curve of first compound; for viability, T/C: stronger effect = lower value
Procedure, shortened: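 Viability of tumor cells grown as complex spheroids with endothelial and stromal cells, exposed to drug combinations. Top concentration at or near clinical Cmax (else 10 microM), diluted in half-log increments.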

[1] = second compound 0.0316 µM, first compound 0.0316 µM
[2] = second compound 0.0316 µM, first compound 0.1 µM
[3] = second compound 0.0316 µM, first compound 0.316 µM
[4] = second compound 0.0316 µM, first compound 1 µM
[5] = second compound 0.0316 µM, first compound 3.16 µM
[6] = second compound 0.0316 µM, first compound 10 µM
[7] = second compound 0.1 µM, first compound 0.0316 µM
[8] = second compound 0.1 µM, first compound 0.1 µM
[9] = second compound 0.1 µM, first compound 0.316 µM
[10] = second compound 0.1 µM, first compound 1 µM
[11] = second compound 0.1 µM, first compound 3.16 µM
[12] = second compound 0.1 µM, first compound 10 µM
[13] = second compound 0.316 µM, first compound 0.0316 µM
[14] = second compound 0.316 µM, first compound 0.1 µM
[15] = second compound 0.316 µM, first compound 0.316 µM
[16] = second compound 0.316 µM, first compound 1 µM
[17] = second compound 0.316 µM, first compound 3.16 µM
[18] = second compound 0.316 µM, first compound 10 µM
[19] = second compound 1 µM, first compound 0.0316 µM
[20] = second compound 1 µM, first compound 0.1 µM
[21] = second compound 1 µM, first compound 0.316 µM
[22] = second compound 1 µM, first compound 1 µM
[23] = second compound 1 µM, first compound 3.16 µM
[24] = second compound 1 µM, first compound 10 µM
[25] = second compound 3.16 µM, first compound 0.0316 µM
[26] = second compound 3.16 µM, first compound 0.1 µM
[27] = second compound 3.16 µM, first compound 0.316 µM
[28] = second compound 3.16 µM, first compound 1 µM
[29] = second compound 3.16 µM, first compound 3.16 µM
[30] = second compound 3.16 µM, first compound 10 µM
[31] = second compound 10 µM, first compound 0.0316 µM
[32] = second compound 10 µM, first compound 0.1 µM
[33] = second compound 10 µM, first compound 0.316 µM
[34] = second compound 10 µM, first compound 1 µM
[35] = second compound 10 µM, first compound 3.16 µM
[36] = second compound 10 µM, first compound 10 µM
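Wherever viability, T/C is given: 100% = DMSO vehicle control viability.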

O=C(c1cc(Cc2n[nH]c(=O)c3ccccc23)ccc1F)N1CCN(C(=O)C2CC2)CC1 + Cc1[nH]c2ccc(F)cc2c1-c1nc2c3cccnc3c3ncccc3c2[nH]1 showed an IC50 (second compound 0.0316 µM) greater than 10 µM, an IC50 (second compound 0.1 µM) greater than 10 µM and an IC50 (second compound 0.316 µM) greater than 10 µM. The IC50 (second compound 1 µM) was greater than 10 µM, the IC50 (second compound 3.16 µM) was less than 0.0316 µM and the IC50 (second compound 10 µM) was greater than 10 µM. It also gave a viability, T/C [1] of 122%, a viability, T/C [2] of 85.5% and a viability, T/C [3] of 82.7%. The viability, T/C [4] was 66.6%, the viability, T/C [5] was 68% and the viability, T/C [6] was 111%. It also gave a viability, T/C [7] of 110%, a viability, T/C [8] of 85.3% and a viability, T/C [9] of 87.7%. The viability, T/C [10] was 102%, the viability, T/C [11] was 103% and the viability, T/C [12] was 63.6%. For the same compound, the viability, T/C [13] was 105%, the viability, T/C [14] was 97.9% and the viability, T/C [15] was 81.9%. For the same compound, the viability, T/C [16] was 100%, the viability, T/C [17] was 75.6% and the viability, T/C [18] was 97.1%. The viability, T/C [19] was 82.7%, the viability, T/C [20] was 100% and the viability, T/C [21] was 102%. The viability, T/C [22] was 81.2%, the viability, T/C [23] was 69.9% and the viability, T/C [24] was 95.3%. The viability, T/C [25] was 49.2%, the viability, T/C [26] was 63% and the viability, T/C [27] was 92%. The viability, T/C [28] was 59.2%, the viability, T/C [29] was 79.8% and the viability, T/C [30] was 71.1%. The viability, T/C [31] was 86.1%, the viability, T/C [32] was 69.9% and the viability, T/C [33] was 52.6%. The viability, T/C [34] was 81.6%, the viability, T/C [35] was 51.8% and the viability, T/C [36] was 53.7%.

Work on Cc1[nH]c2ccccc2c1CCNCc1ccc(/C=C/C(=O)NO)cc1 + Cc1[nH]c2ccc(F)cc2c1-c1nc2c3cccnc3c3ncccc3c2[nH]1 yielded an IC50 (second compound 0.0316 µM) greater than 0.316 µM, an IC50 (second compound 0.1 µM) of 0.091 µM and an IC50 (second compound 0.316 µM) of 0.165 µM. For the same compound, the IC50 (second compound 1 µM) was greater than 0.316 µM, the IC50 (second compound 3.16 µM) was greater than 0.316 µM and the IC50 (second compound 10 µM) was 0.134 µM. It also gave a viability, T/C (second compound 0.0316 µM, first compound 0.000999 µM) of 99.7%, a viability, T/C (second compound 0.0316 µM, first compound 0.00316 µM) of 117% and a viability, T/C (second compound 0.0316 µM, first compound 0.00999 µM) of 115%. It also gave a viability, T/C [1] of 120%, a viability, T/C (second compound 0.0316 µM, first compound 0.0999 µM) of 64.1% and a viability, T/C [3] of 49.7%. For the same compound, the viability, T/C (second compound 0.1 µM, first compound 0.000999 µM) was 82.1%, the viability, T/C (second compound 0.1 µM, first compound 0.00316 µM) was 128% and the viability, T/C (second compound 0.1 µM, first compound 0.00999 µM) was 117%. For the same compound, the viability, T/C [7] was 88.3%, the viability, T/C (second compound 0.1 µM, first compound 0.0999 µM) was 42% and the viability, T/C [9] was 51.3%. For the same compound, the viability, T/C (second compound 0.316 µM, first compound 0.000999 µM) was 113%, the viability, T/C (second compound 0.316 µM, first compound 0.00316 µM) was 67.8% and the viability, T/C (second compound 0.316 µM, first compound 0.00999 µM) was 76%. The viability, T/C [13] was 113%, the viability, T/C (second compound 0.316 µM, first compound 0.0999 µM) was 59.8% and the viability, T/C [15] was 37.2%. The viability, T/C (second compound 1 µM, first compound 0.000999 µM) was 107%, the viability, T/C (second compound 1 µM, first compound 0.00316 µM) was 54.1% and the viability, T/C (second compound 1 µM, first compound 0.00999 µM) was 86.5%. It also gave a viability, T/C [19] of 73.3%, a viability, T/C (second compound 1 µM, first compound 0.0999 µM) of 54.5% and a viability, T/C [21] of 53.2%. It also gave a viability, T/C (second compound 3.16 µM, first compound 0.000999 µM) of 65.3%, a viability, T/C (second compound 3.16 µM, first compound 0.00316 µM) of 56.5% and a viability, T/C (second compound 3.16 µM, first compound 0.00999 µM) of 64.8%. The viability, T/C [25] was 54%, the viability, T/C (second compound 3.16 µM, first compound 0.0999 µM) was 70.2% and the viability, T/C [27] was 46.7%. It also gave a viability, T/C (second compound 10 µM, first compound 0.000999 µM) of 76.9%, a viability, T/C (second compound 10 µM, first compound 0.00316 µM) of 77.7% and a viability, T/C (second compound 10 µM, first compound 0.00999 µM) of 55%. It also gave a viability, T/C [31] of 65.5%, a viability, T/C (second compound 10 µM, first compound 0.0999 µM) of 52.4% and a viability, T/C [33] of 43.2%.

CC(=O)O[C@H]1C(=O)[C@@]2(C)[C@H]([C@H](OC(=O)c3ccccc3)[C@]3(O)C[C@H](OC(=O)[C@H](O)[C@@H](NC(=O)c4ccccc4)c4ccccc4)C(C)=C1C3(C)C)[C@]1(OC(C)=O)CO[C@@H]1C[C@@H]2O + Cc1cnc(CNC(=O)c2c(=O)c3ccc(N4CCCN(C)CC4)nc3n3c2sc2ccccc23)cn1 was tested, and the IC50 (second compound 0.0316 µM) was greater than 10 µM, the IC50 (second compound 0.1 µM) was greater than 10 µM and the IC50 (second compound 0.316 µM) was greater than 10 µM. For the same compound, the IC50 (second compound 1 µM) was greater than 10 µM, the IC50 (second compound 3.16 µM) was greater than 10 µM and the IC50 (second compound 10 µM) was less than 0.0316 µM. The viability, T/C [1] was 78.7%, the viability, T/C [2] was 93.7% and the viability, T/C [3] was 72.2%. The viability, T/C [4] was 75.3%, the viability, T/C [5] was 92.5% and the viability, T/C [6] was 93.3%. It also gave a viability, T/C [7] of 104%, a viability, T/C [8] of 90.9% and a viability, T/C [9] of 74.8%. For the same compound, the viability, T/C [10] was 91.5%, the viability, T/C [11] was 103% and the viability, T/C [12] was 67.8%. The viability, T/C [13] was 65.2%, the viability, T/C [14] was 57.1% and the viability, T/C [15] was 60.6%. For the same compound, the viability, T/C [16] was 68.9%, the viability, T/C [17] was 70.9% and the viability, T/C [18] was 73.4%. It also gave a viability, T/C [19] of 55.7%, a viability, T/C [20] of 70.9% and a viability, T/C [21] of 48.5%. It also gave a viability, T/C [22] of 58.6%, a viability, T/C [23] of 67.1% and a viability, T/C [24] of 56.1%. The viability, T/C [25] was 59.7%, the viability, T/C [26] was 67.7% and the viability, T/C [27] was 45.9%. The viability, T/C [28] was 66.8%, the viability, T/C [29] was 51.4% and the viability, T/C [30] was 59.9%. It also gave a viability, T/C [31] of 26.7%, a viability, T/C [32] of 44.4% and a viability, T/C [33] of 38.7%. For the same compound, the viability, T/C [34] was 58.5%, the viability, T/C [35] was 48.9% and the viability, T/C [36] was 69.6%.
